The subject of test [1] is hM4Di-expressing cortical FS interneurons. The experiment in a line: Current-clamp recording from hM4Di-expressing (mCitrine+) cells in acute cortical slices. The settings on record: bath application. In kind it is cell-based, mouse. On the procedure:
Single-Cell Electrophysiology: Auditory Thalamocortical Brain Slices. Acute primary thalamocortical (TC) slices (400-μm thick) containing the left ACx and the left ventral part of the medial geniculate nuclei (MGv) of the thalamus were prepared as previously described (Chun et al. (2014) Science 344:1178-1182; Cruikshank et al. (2002) J. Neurophysiol. 87:361-384). Briefly, mouse brains were removed and placed in cold (4° C.) dissecting medium containing 125 mM choline-Cl, 2.5 mM KCl, 0.4 mM CaCl2, 6 mM MgCl2, 1.25 mM NaH2PO4, 26 mM NaHCO3, and 20 mM glucose (300-310 mosm), equilibrated with 95% O2/5% CO2. […] If recorded in current-clamp mode, pyramidal neurons were additionally verified as regularly spiking. […]
Single-Cell Electrophysiology: Whole-Cell Recording. Whole-cell recordings were made with patch pipettes (3-5 MOhm) using a Multiclamp 700B amplifier, digitized (10 kHz) with a Digidata 1440, and recorded using pCLAMP 10 software (all Molecular Devices, San Jose, CA). […] In voltage-clamp recordings, series resistance, input resistance, and holding current were monitored for stability. […] Input resistance and membrane resting voltage were monitored during recordings. […] Drugs were added to ACSF or locally applied via continuous pressure ejection from a large-diameter pipette placed in the slice near the recorded cell. […]

A short description of test [2]: Frequency discrimination (auditory) acuity test, pre-pulse inhibition of acoustic startle response (FDT). It is filed as in vivo, mouse. Particulars: Gad2Cre, i.p., compared to vehicle. The method, then: (§1) Mouse Behavioral Tests: Frequency Discrimination (Auditory) Acuity Test. Pitch-discrimination acuity was assessed using pre-pulse inhibition (PPI) of the acoustic startle response via a hardware-computer interface (Kinder Scientific, Chula Vista, CA), according to established methods (Aizenberg et al. (2015) PLOS Biol. 13:e1002308; Blundon et al. (2017) Science 356:1352-1356). In brief, a background pure tone (16.4 kHz) was played at a sound pressure level (SPL) of 70 dB throughout the session, unless otherwise noted. Each session was split into four blocks. Block 1 included a 5-minute acclimation period in which the background tone was played. Block 2 included nine startle trials in which a 120-dB SPL, 20-ms white noise (WN) burst was played. Block 3 included prepulse trials and 10 startle-only trials in a pseudo-random order. Each pre-pulse trial included a 70-dB SPL 80-ms pre-pulse (pure-tone frequency was 0%, 1%, 2%, 4%, 8%, 16%, or 32% lower than that of the background tone), followed by a 120-dB SPL, 20-ms WN startle pulse, and then returned to the background tone after the startle. Every trial in Block 3 was presented 10 times. […] PPI percentage was calculated from Block 3 data as follows: [1−(pre-pulse trial/average startle only trial)]*100. […] FDT values were then analyzed using a t-test, a one-way ANOVA, or a paired t-test, as appropriate. […]

Test [3] can be described thus: Acoustic startle response (ASR). It is filed as in vivo, mouse. The settings on record: C21 i.p., either genotype (Gad2Cre; WT or Gad2Cre; CD+/-). On the procedure: as §1
The test system of another test is ACx excitatory neurons. In kind it is cell-based, mouse.
Test [4] has as its system FS interneurons in the ACx. The experiment in a line: Whole-cell current-clamp recording of FS interneuron excitability (rheobase, current ramp) in auditory thalamocortical slices. In kind it is cell-based, mouse. Particulars: for PG 97-269 rheobase shift (difference between rheobase before and after application) / PG 97-269 rheobase shift: FS interneurons.
The next test has as its system ACx interneurons. Put plainly: Whole-cell voltage-clamp recording of inward voltage-gated current threshold (voltage ramp) in ACx interneurons. It is filed as cell-based, mouse. The settings on record: Gtf2ird1+/- and Gtf2ird1-/- cortical interneurons compared to WT interneurons.

Where two headings read alike, the source gives them in different places. No end group written: not given here.

In the case of `c1ccc2c(c1)N=C(N1CCNCC1)c1ccccc1N2` [C21], the “number of action potentials elicited by depolarizing current injections” value in test [1] was “decreased”. Moreover, the “FDT (frequency-discrimination threshold)” value in test [2] (CD+/- mice expressing hM4Di in ACx interneurons) is reported as “significantly increased”; in test [2] (WT mice expressing hM4Di in ACx interneurons), “not different”. For the same molecule, in test [3], the ASR entry was “not affected”.

Regarding `NC1=N[C@H](O)[C@H]2[C@H]3O[C@]4(O)O[C@@H]([C@@H](O)[C@@]2(N1)[C@@H]4O)[C@]3(O)CO` [tetrodotoxin], the “difference in sEPSC frequencies between WT and CD+/- ACx excitatory neurons after application” value in the test with ACx excitatory neurons is listed as “abolished”.

Regarding “[Acetyl-His^1, D-Phe^2, Lys^15, Arg^16, Leu^17] VIP (1-7)/GRF (8-27) hybrid with C-terminal amidation (HFDAVFTNSYRKVLKRLSARKLLQDIL; HELM PEPTIDE1{[ac].H.[dF].D.A.V.F.T.N.S.Y.R.K.V.L.K.R.L.S.A.R.K.L.L.Q.D.I.L.[am]}$$$$V2.0; SMILES CC[C@H](C)[C@H](NC(=O)[C@H](CC(=O)O)NC(=O)[C@H](CCC(N)=O)NC(=O)[C@H](CC(C)C)NC(=O)[C@H](CC(C)C)NC(=O)[C@H](CCCCN)NC(=O)[C@H](CCCNC(=N)N)NC(=O)[C@H](C)NC(=O)[C@H](CO)NC(=O)[C@H](CC(C)C)NC(=O)[C@H](CCCNC(=N)N)NC(=O)[C@H](CCCCN)NC(=O)[C@H](CC(C)C)NC(=O)[C@@H](NC(=O)[C@H](CCCCN)NC(=O)[C@H](CCCNC(=N)N)NC(=O)[C@H](Cc1ccc(O)cc1)NC(=O)[C@H](CO)NC(=O)[C@H](CC(N)=O)NC(=O)[C@@H](NC(=O)[C@H](Cc1ccccc1)NC(=O)[C@@H](NC(=O)[C@H](C)NC(=O)[C@H](CC(=O)O)NC(=O)[C@@H](Cc1ccccc1)NC(=O)[C@H](Cc1c[nH]cn1)NC(C)=O)C(C)C)[C@@H](C)O)C(C)C)C(=O)N[C@@H](CC(C)C)C(N)=O) [PG 97-269, VIPR1-specific antagonist]”, the “effect on excitability of FS interneurons” value is listed as “either a diminished or no effect” in test [4] (ACx of Gtf2ird1+/- and Gtf2ird1-/- mice compared to WT mice); “no additional effect” in test [4] (CD+/- cortex, interneurons already hyperexcitable). In addition, the “PG 97-269 rheobase shift (difference between rheobase before and after application)” value is on record as “not significantly different from 0” in test [4] (CD+/- mice) and “significantly less than 0” in test [4] (WT mice). For the same molecule, the “PG 97-269 rheobase shift” value is recorded as “did differ from 0” in test [4] (Gtf2ird1+/- mice) and “did not significantly differ from 0” in test [4] (Gtf2ird1-/- mice). For the same molecule, the “PG 97-269 threshold shift” value in the test on ACx interneurons is listed as “significantly reduced”.

For the molecule “[Ala^11,22,28]-VIP (HSDAVFTDNYARLRKQMAVKKALNSILA; ends and bridges not checked; UniProt P01282 125-152, looked up, variant T11A Y22A N28A) [VIPR1-specific agonist]”, the “effect of VIPR1-specific agonist on interneurons” value in test [4] (WT or CD+/- interneurons, brain slices) is reported as “no significant effect”.

Regarding picrotoxin, the “difference in sEPSC frequencies between WT and CD+/- ACx excitatory neurons after application” value in the test with ACx excitatory neurons (L4 ACx excitatory neurons) is reported as “abolished”.

Values taken from US20250161414A1, “METHOD FOR IMPROVING AUDITORY PERCEPTION USING A VIPR1 INHIBITOR” (ST. JUDE CHILDREN'S RESEARCH HOSPITAL, INC., priority 2022, published 2025).
